US11207312B2, “Metallo-beta-lactamase inhibitors and methods of use thereof” (priority 2017, dated 2021)
Values after ≈ are worked out from the molar mass of the structure shown.

Columns and labels:
MB5919 (OprD+, efflux+) = assay: microbe, parasite or virus in culture; format: cell-based, Pseudomonas aeruginosa
Description: (§1) The strain background is Pseudomonas aeruginosa PAO1. A wild-type (M135919) and an isogenic strain in which multiple efflux pumps have been disrupted genetically were used. The MBL IMP-1, obtained from a clinical isolate was introduced into the strain pair by the following process:
(§2) The plasmid DNA was transformed into parental MB5919 (oprD+, efflux+, inducible AmpC) and MB5890 (oprD+, efflux−, inducible AmpC) isogenic strains by electroporation.
(§3) Minimum inhibitory concentrations of sentinel antibiotics were performed to quality control the new strains.

[1] = system: MB9798 (efflux+ MB5919 Trans IMP1 plasmid); assay: microbe, parasite or virus in culture; format: cell-based, Pseudomonas aeruginosa
Description: as §1, §2, §3

[2] = system: MB9799 (efflux- MB5890 Trans IMP1 plasmid); assay: microbe, parasite or virus in culture; format: cell-based, Pseudomonas aeruginosa
Description: as §1, §2, §3

MB5890 (OprD+, efflux-) = assay: microbe, parasite or virus in culture; format: cell-based, Pseudomonas aeruginosa
Description: as §1, §2, §3

[3] = system: MB9861 (Efflux+ MB5919 Trans pFlp-Vim1 plasmid); assay: microbe, parasite or virus in culture; format: cell-based, Pseudomonas aeruginosa
[4] = system: MB9862 (efflux- MB5890 trans pFlp-Vim1); assay: microbe, parasite or virus in culture; format: cell-based, Pseudomonas aeruginosa
[5] = system: efflux- MB5890 Trans pFlp-Vim2 plasmid; assay: microbe, parasite or virus in culture; format: cell-based, Pseudomonas aeruginosa
[6] = system: efflux+ MB5919 Trans pFlp-Vim2 plasmid; assay: microbe, parasite or virus in culture; format: cell-based, Pseudomonas aeruginosa
[7] = system: P. aeruginosa MB9799 (efflux-, IMP-1 plasmid); format: cell-based, Pseudomonas aeruginosa; conditions: efflux − (MB9799) strain; imipenem at 2 μg/mL; in the presence of a class A, C, D serine β-lactamase inhibitor closely related to relebactam
Procedure, shortened: (§4)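 PAO1-derived isogenic pair (oprD+, inducible AmpC), efflux+ MB5919 or efflux− MB5890 parent, carrying an electroporated IMP-1 plasmid from a clinical isolate. Microbroth MIC with fixed imipenem and/or ceftazidime (usually CLSI breakpoint) plus fixed class A/C inhibitor; MBL inhibitor serially titrated, concentration restoring susceptibility recorded.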

[8] = system: Klebsiella pneumoniae expressing VIM-1 (IHMA599644); format: cell-based; conditions: with imipenem 1 μg/ml; 95% inhibition of bacterial growth
Procedure, shortened: (§5)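 MITC95 denotes the minimal test-compound level that, combined with 1 μg/ml imipenem, blocks 95% of bacterial growth, measured by absorbance. Overnight-grown clinical isolates were diluted 1:100 in CAMHB and incubated with both agents at 35° C for 22–24 h.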

[9] = system: Serratia marcescens expressing IMP-1 (CL5741); format: cell-based; conditions: with imipenem 1 μg/ml; 95% inhibition of bacterial growth
Procedure, shortened: as §5

[10] = system: Escherichia coli expressing NDM-1 (CLB30016); format: cell-based; conditions: with imipenem 1 μg/ml; 95% inhibition of bacterial growth
Procedure, shortened: as §5

NDM-1 = NDM-1 (Klebsiella pneumoniae, UniProt C7C422); assay: biochemical; format: biochemical; conditions: CCF2-FA fluorescence assay, 2 hours at 25° C.
Sequence of NDM-1 (C7C422 whole entry, looked up, species assumed): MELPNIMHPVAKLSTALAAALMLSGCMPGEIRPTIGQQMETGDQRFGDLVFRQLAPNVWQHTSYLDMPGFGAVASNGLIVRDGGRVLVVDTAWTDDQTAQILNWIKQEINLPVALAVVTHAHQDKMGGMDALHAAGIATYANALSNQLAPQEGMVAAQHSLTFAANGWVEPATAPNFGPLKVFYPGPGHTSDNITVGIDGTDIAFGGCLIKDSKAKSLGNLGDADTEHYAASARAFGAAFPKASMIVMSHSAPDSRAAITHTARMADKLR
Procedure, shortened: (§6)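 In 100 mM phosphate pH 7 containing Tween-20 and ZnSO4, NDM-1 (1 pM), IMP-1 (2 pM) or VIM-1 (30 pM) hydrolysed 1.25 μM CCF2-FA over 2 hours at 25° C with inhibitor present. Readout was 405/460 nm fluorescence.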

VIM-2 = VIM-2 (Escherichia coli, UniProt Q5U7L7); assay: biochemical; conditions: CCF2-FA fluorescence assay; read-out: VIM2 IC50
IMP-1 = IMP-1 (Serratia marcescens, UniProt P52699); assay: biochemical; conditions: CCF2-FA fluorescence assay, 2 hours at 25° C.; read-out: IMP1 IC50
Sequence of IMP-1 (P52699 whole entry, looked up, species assumed): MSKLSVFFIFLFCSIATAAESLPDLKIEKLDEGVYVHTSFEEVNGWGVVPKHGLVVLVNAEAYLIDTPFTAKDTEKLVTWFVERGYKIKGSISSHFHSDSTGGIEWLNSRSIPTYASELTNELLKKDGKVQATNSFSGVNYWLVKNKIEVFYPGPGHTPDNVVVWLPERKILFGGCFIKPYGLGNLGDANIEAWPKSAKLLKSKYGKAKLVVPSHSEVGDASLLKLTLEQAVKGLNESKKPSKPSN
Procedure, shortened: as §6

VIM-1 = VIM-1 (Pseudomonas aeruginosa (strain ATCC 15692 / DSM 22644 / CIP 104116 / JCM 14847 / LMG 12228 / 1C / PRS 101 / PAO1), UniProt A0A0F7KYQ8); assay: biochemical; conditions: CCF2-FA fluorescence assay, 2 hours at 25° C.; read-out: VIM1 IC50
Procedure, shortened: as §6

[11] = system: P. aeruginosa MB9798 (efflux+, IMP-1 plasmid); conditions: for MB9798 MITC95 P. aeruginosa uM Efflux WT: efflux + (MB9798) strain, imipenem at 2 μg/mL, in the presence of a class A, C, D serine β-lactamase inhibitor closely related to relebactam; for Efflux ratio: fold difference between efflux+ (MB9798) and efflux− (MB9799) strains
Procedure, shortened: as §4

[12] = MB9798, OprD+, efflux+, MB5919 Trans IMP1 plasmid (CL 5673)
[13] = MB9799, OprD+, efflux−, MB5890 Trans IMP1 plasmid (CL 5673)
[14] = MB9861, OprD+, Efflux+, MB5919 Trans pFlp-Vim1 plasmid
[15] = MB9862, OprD+, efflux−, MB5890 trans pFlp-Vim1
[16] = OprD+, efflux−, MB5890 Trans pFlp-Vim2 plasmid
[17] = OprD+, efflux+, MB5919 Trans pFlp-Vim2 plasmid

Compound | MIC (MB5919 (OprD+, efflux+); MB5919, OprD+, efflux+) [µg/mL] | MIC [1, 12] [µg/mL] | MIC [2, 13] [µg/mL] | MIC (MB5890 (OprD+, efflux-); MB5890, OprD+, efflux−) [µg/mL] | MIC [3, 14] [µg/mL] | MIC [4, 15] [µg/mL] | MIC [5, 16] [µg/mL] | MIC [6, 17] [µg/mL] | MB9799 MITC95 P. aeruginosa uM Efflux Mutant [7] [µM] | IHMA599644 K. pneumoniae MITC95 VIM [8] [µM] | CL5741 S. marcescens MITC95 IMP [9] [µM] | CLB30016 E. coli MITC95 NDM [10] [µM] | IC50 (NDM-1) [nM] | IC50 (VIM-2) [nM] | IC50 (IMP-1) [nM] | IC50 (VIM-1) [nM] | MB9798 MITC95 P. aeruginosa uM Efflux WT [11] [µM] | Efflux ratio [11] | further results
CC[C@H]1OC(=O)[C@H](C)[C@@H](O[C@H]2C[C@@](C)(OC)[C@@H](O)[C@H](C)O2)[C@H](C)[C@@H](O[C@@H]2O[C@H](C)C[C@H](N(C)C)[C@H]2O)[C@](C)(O)C[C@@H](C)CN(C)[C@H](C)[C@@H](O)[C@]1(C)O [Azithromycin] | – | – | – | – | – | – | – | – | – | – | – | – | – | – | – | – | – | – | MIC (MB5919 (OprD+, efflux+); Pseudomonas aeruginosa): 16 µg/mL (≈ 21.4 µM); MIC ([1]; Pseudomonas aeruginosa): 2 µg/mL (≈ 2.67 µM); MIC ([2]; Pseudomonas aeruginosa): 2 µg/mL (≈ 2.67 µM); MIC (MB5890 (OprD+, efflux-); Pseudomonas aeruginosa): 1 µg/mL (≈ 1.34 µM); MIC ([3]; Pseudomonas aeruginosa): 32 µg/mL (≈ 42.7 µM); MIC ([4]; Pseudomonas aeruginosa): 1 µg/mL (≈ 1.34 µM); MIC ([5]; Pseudomonas aeruginosa): 1 µg/mL (≈ 1.34 µM); MIC ([6]; Pseudomonas aeruginosa): 32 µg/mL (≈ 42.7 µM)
CC(C)(O/N=C(\C(=O)N[C@@H]1C(=O)N2C(C(=O)[O-])=C(C[n+]3ccccc3)CS[C@H]12)c1csc(N)n1)C(=O)O [CAZ, ceftazidime] | 1 (≈ 1.83 µM) | 256 (≈ 468 µM) | 256 (≈ 468 µM) | 0.5 (≈ 0.915 µM) | >256 | >256 | 64 (≈ 117 µM) | 128 (≈ 234 µM) | – | – | – | – | – | – | – | – | – | – | –
O=C(N[C@H](CO)[C@H](O)c1ccc([N+](=O)[O-])cc1)C(Cl)Cl [Chloramphenicol, chloramphenicol] | – | – | – | – | – | – | – | – | – | – | – | – | – | – | – | – | – | – | MIC (MB5919 (OprD+, efflux+); Pseudomonas aeruginosa): > 64 µg/mL; MIC ([1]; Pseudomonas aeruginosa): > 64 µg/mL; MIC ([2]; Pseudomonas aeruginosa): 1 µg/mL (≈ 3.09 µM); MIC (MB5890 (OprD+, efflux-); Pseudomonas aeruginosa): 1 µg/mL (≈ 3.09 µM); MIC ([3]; Pseudomonas aeruginosa): > 64 µg/mL; MIC ([4]; Pseudomonas aeruginosa): 2 µg/mL (≈ 6.19 µM); MIC ([5]; Pseudomonas aeruginosa): 1 µg/mL (≈ 3.09 µM); MIC ([6]; Pseudomonas aeruginosa): > 64 µg/mL
NCCOCC1CCN(c2ccc(S(=O)(=O)NC[C@H](O)CN)c(S(N)(=O)=O)c2-c2nn[nH]n2)CC1 [Example 208] | – | – | – | – | – | – | – | – | 0.78 | 3.13 | 0.78 | 1.56 | 1.05 | 1.19 | 1.84 | 0.11 | 0.78 | 1.00 | –
NCCOC1CCN(c2ccc(S(=O)(=O)NC[C@H](O)CN)c(S(N)(=O)=O)c2-c2nn[nH]n2)CC1 [Example 209, (R)—N1-(3-amino-2-hydroxypropyl)-4-(4-(2-aminoethoxy)piperidin-1-yl)-3-(2H-tetrazol-5-yl)benzene-1,2-disulfonamide] | – | – | – | – | – | – | – | – | 0.78 | 1.56 | 1.56 | 0.78 | 0.96 | 3.32 | 1.69 | 0.12 | 0.78 | 1.00 | –
C[C@@H](O)[C@H]1C(=O)N2C(C(=O)O)=C(SCCN=CN)C[C@H]12 [Imipenem, imipenem] | 4 (≈ 13.4 µM) | 64 (≈ 214 µM) | 32 (≈ 107 µM) | 2 (≈ 6.68 µM) | >64 | 64 (≈ 214 µM) | 32 (≈ 107 µM) | >64 | – | – | – | – | – | – | – | – | – | – | –
C[C@@H](O)[C@H]1C(=O)N2C(C(=O)O)=C(S[C@@H]3CN[C@H](C(=O)N(C)C)C3)[C@H](C)[C@H]12 [Meropenem, meropenem] | 2 (≈ 5.22 µM) | >64 | 64 (≈ 167 µM) | 0.5 (≈ 1.3 µM) | >64 | 64 (≈ 167 µM) | 32 (≈ 83.4 µM) | >64 | – | – | – | – | – | – | – | – | – | – | –
CCN1CCN(C(=O)N[C@@H](C(=O)N[C@@H]2C(=O)N3[C@@H]2SC(C)(C)[C@@H]3C(=O)O)c2ccccc2)C(=O)C1=O [Pipercillin, piperacillin] | 2 (≈ 3.86 µM) | 4 (≈ 7.73 µM) | 4 (≈ 7.73 µM) | 1 (≈ 1.93 µM) | >256 | 128 (≈ 247 µM) | 128 (≈ 247 µM) | >256 | – | – | – | – | – | – | – | – | – | – | –
NC[C@@H](O)CNS(=O)(=O)c1ccc(NC2CCC(N)C2)c(-c2nn[nH]n2)c1S(N)(=O)=O (stereo partly drawn) [compound 184, N1-((R)-3-amino-2-hydroxypropyl)-4-((3-aminocyclopentyl)amino)-3-(2H-tetrazol-5-yl)benzene-1,2-disulfonamide] | – | – | – | – | – | – | – | – | 3.13 | 1.56 | 1.56 | 0.78 | 19.4 | 44.4 | 39.4 | 4.61 | 6.25 | 2.00 | –
